This note sets out measurements from patent publication US7763615B2, “Ecteinascidin analogs for use as antitumour agents” (priority 2001, dated 2010).

Series [1] relates to NRK-52E, normal rat kidney cells. The conditions noted are these: 24 h.
Another series deals with (HEPG2). The note with it: human, 24 h, 30 μM.
The next series concerns the target CYP2D6 (Homo sapiens, UniProt P10635). The series can be described thus: in vitro. The note with it: CYP2D6 (% inhibition).

Sequence of CYP2D6 (P10635 whole entry): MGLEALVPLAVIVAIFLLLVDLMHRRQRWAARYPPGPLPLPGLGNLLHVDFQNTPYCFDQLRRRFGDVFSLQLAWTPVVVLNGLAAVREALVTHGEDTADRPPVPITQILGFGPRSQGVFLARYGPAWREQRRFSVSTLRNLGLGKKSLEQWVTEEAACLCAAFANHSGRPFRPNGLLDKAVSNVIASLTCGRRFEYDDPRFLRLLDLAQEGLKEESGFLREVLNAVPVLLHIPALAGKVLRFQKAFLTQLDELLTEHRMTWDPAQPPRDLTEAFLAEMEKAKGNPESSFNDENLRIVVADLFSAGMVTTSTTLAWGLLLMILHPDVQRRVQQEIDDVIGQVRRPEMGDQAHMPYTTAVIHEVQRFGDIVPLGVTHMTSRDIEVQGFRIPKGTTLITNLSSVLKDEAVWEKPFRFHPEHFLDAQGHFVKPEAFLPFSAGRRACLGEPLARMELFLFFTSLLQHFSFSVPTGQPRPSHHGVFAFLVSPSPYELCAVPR
Method for CYP2D6: For CYP2D6 inhibition assay, the compound are tested at 10 μM in duplicate with a 0.25% final concentration of both methanol and acetonitrile in presence of the fluorescent substrate AMMC (3-[2-N,N-diethyl-N-methylammonium)ethyl]-7-methoxy-4-methylcoumarin) at the concentration of 1.5 μM). The conversion of the AMMC in AHMC (3-[2-N,N-diethyl-N-methylammonium)ethyl]-7-hydroxy-4-methylcoumarin) is determined spectrofluorimetry after incubation with the enzyme during 450 min at 37° C.
For both assays, the fluorescent intensity measured at t=0 is subtracted from that measured after the appropriate incubation time. The ratio of signal-to-noise is calculated by comparing the fluorescence in incubations containing the test compound to the control samples containing the same solvent vehicle. The percent of control activity is calculated and reported as percent inhibition.

In turn, `COc1c(C)cc2c(c1O)[C@@H]1C3[C@@H]4SC[C@]5(NCCc6c5[nH]c5c(C)cccc65)C(=O)COC[C@@H](c5c6c(c(C)c(OC(C)=O)c54)OCO6)N3[C@@H](O)[C@H](C2)N1C` (stereo partly drawn) [Compound 36] showed a Kidney in series [1] of 3.56E−07. Besides, the “Cell Viability (% inhibition)” value in the series with (HEPG2) is given as 33 % inhibition. In addition, the inhibition (as a rule, the share of the control response that was lost under treatment) at 450 min, 10 µM against CYP2D6 is 15%.
